Values quoted from earlier work as cited in PubChem BioAssay AID1259410 (Chemical Carcinogenesis Research Information System (CCRIS), 2018).

Tested on: rodent tumor promotion studies, tumor incidence
Assay: CCRIS tumor promotion studies

Cc1ccc2cc3c(ccc4ccccc43)c3c2c1CC3
outcome (Carcinogen: N-BIS(2-HYDROXYPROPYL)NITROSAMINE, 53609-64-6, N-ETHYL-N-HYDROXYETHYLNITROSAMINE, 13147-25-6, 3,2'-DIMETHYL-4-AMINOB, Carcinogen: N-BIS(2-HYDROXYPROPYL)NITROSAMINE, 53609-64-6, N-ETHYL-N-HYDROXYETHYLNITROSAMINE, 13147-25-6, 3,2'-DIMETHYL-4-AMINOB, Doses [Carcinogen]: 1000 MG/KG IP IN SALINE ON DAY 1 AND 4, 1500 MG/KG IG IN DISTILLED WATER ON DAY 8 AND 11, 75 MG/KG SC IN CORN OIL ON D, Doses [Carcinogen]: 1000 MG/KG IP IN SALINE ON DAY 1 AND 4, 1500 MG/KG IG IN DISTILLED WATER ON DAY 8 AND 11, 75 MG/KG SC IN CORN OIL ON D, Doses [Promoter]: 0, 0.02% IN DIET BEGINNING 1 WK POST LAST CARCINOGEN DOSE AND CONTINUING FOR 12 WK (STUDY DURATION: 16 WK), Route [Carcinogen]: INTRAPERITONEAL, GAVAGE, SUBCUTANEOUS, Route [Carcinogen]: INTRAPERITONEAL, GAVAGE, SUBCUTANEOUS, Route [Promoter]: ORAL, Species: RAT, Strain/Sex: F344/MALE): lung: adenoma or adenocarcinoma

S=C=NCCCCCCc1ccccc1
outcome (Carcinogen: AZOXYMETHANE, 25843-45-2, Doses [Carcinogen]: 15 MG/KG BW 1/WK FOR 2 WK, Doses [Promoter]: 0, 640 PPM IN DIET BEGINNING 2 WK PRIOR TO CARCINOGEN DOSE (STUDY DURATION: 56 WK), Route [Carcinogen]: SUBCUTANEOUS, Route [Promoter]: ORAL, Species: RAT, Strain/Sex: F344/MALE): intestine: adenocarcinoma | outcome (Carcinogen: N-METHYL-N-BENZYLNITROSAMINE, 937-40-6, Doses [Carcinogen]: 0.5 MG/KG BW 1/WK FOR 15 WK, Doses [Promoter]: 0, 1, 2.5 UMOL/G DIET FOR DURATION OF STUDY BEGINNING 2 WK PRIOR TO CARCINOGEN TREATMENT (STUDY DURATION: 21 WK), Doses [Promoter]: 0, 1, 2.5 UMOL/G DIET FOR DURATION OF STUDY BEGINNING 2 WK PRIOR TO CARCINOGEN TREATMENT (STUDY DURATION: 21 WK), Route [Carcinogen]: SUBCUTANEOUS, Route [Promoter]: ORAL, Species: RAT, Strain/Sex: F344/MALE): esophagus: tumor

NC(Cc1c[nH]c2ccccc12)C(=O)O (centres undefined)
outcome (Carcinogen: 2-NAPHTHYLAMINE, Doses [Carcinogen]: DIET, Doses [Promoter]: IN DIET, Route [Carcinogen]: ORAL, Route [Promoter]: ORAL, Species: DOG, Strain/Sex: FEMALE): urinary bladder | outcome (Carcinogen: N-(4-(5-NITRO-2-FURYL)-2-THIAZOLYL)FORMAMIDE, Doses [Carcinogen]: DIET, Doses [Promoter]: IN DIET, Route [Carcinogen]: ORAL, Route [Promoter]: ORAL, Species: RAT, Strain/Sex: F344/MALE): urinary bladder: papilloma, carcinoma

Clc1cc2c(cc1Cl)Oc1cc(Cl)c(Cl)cc1O2
outcome (Carcinogen: 7,12-DIMETHYLBENZ(A)ANTHRACENE, Doses [Carcinogen]: 0.2 UMOL, Route [Carcinogen]: DERMAL, Route [Promoter]: DERMAL, Species: MOUSE, Strain/Sex: HRS/FEMALE): integumentary system (skin): papilloma | outcome (Carcinogen: DIETHYLNITROSAMINE [55-18-5], Doses [Carcinogen]: 175 MG/KG BW ONCE AT 10 WK OF AGE (STUDY DURATION: 32 WK), Doses [Promoter]: 1750 NG/KG IN CORN OIL 1X/2 WK FOR 14 WK BEGINNING 18 WK POST CARCINOGEN DOSE (STUDY DURATION: 32 WK), Route [Carcinogen]: INTRAPERITONEAL, Route [Promoter]: GAVAGE, Species: RAT, Strain/Sex: SPRAGUE-DAWLEY/FEMALE): ovary: tumor | outcome (Carcinogen: DIETHYLNITROSAMINE [55-18-5], Doses [Carcinogen]: 175 MG/KG BW ONCE AT 10 WK OF AGE (STUDY DURATION: 32 WK), Doses [Promoter]: 1750 NG/KG IN CORN OIL 1X/2 WK FOR 30 WK BEGINNING 2 WK POST CARCINOGEN DOSE (STUDY DURATION: 32 WK), Route [Carcinogen]: INTRAPERITONEAL, Route [Promoter]: GAVAGE, Species: RAT, Strain/Sex: SPRAGUE-DAWLEY/FEMALE): ovary: tumor | outcome (Carcinogen: DIETHYLNITROSAMINE [55-18-5], Doses [Carcinogen]: 175 MG/KG BW ONCE AT 10 WK OF AGE (STUDY DURATION: 48 WK), Doses [Promoter]: 1750 NG/KG IN CORN OIL 1X/2 WK FOR 30 WK BEGINNING 2 WK POST CARCINOGEN DOSE (STUDY DURATION: 48 WK), Route [Carcinogen]: INTRAPERITONEAL, Route [Promoter]: GAVAGE, Species: RAT, Strain/Sex: SPRAGUE-DAWLEY/FEMALE): ovary: tumor | outcome (Carcinogen: DIETHYLNITROSAMINE [55-18-5], Doses [Carcinogen]: 175 MG/KG BW ONCE AT 10 WK OF AGE (STUDY DURATION: 48 WK), Doses [Promoter]: 1750 NG/KG IN CORN OIL 1X/2 WK FOR 30 WK BEGINNING 18 WK POST CARCINOGEN DOSE (STUDY DURATION: 48 WK), Route [Carcinogen]: INTRAPERITONEAL, Route [Promoter]: GAVAGE, Species: RAT, Strain/Sex: SPRAGUE-DAWLEY/FEMALE): ovary: tumor | outcome (Carcinogen: DIETHYLNITROSAMINE [55-18-5], Doses [Carcinogen]: 175 MG/KG BW ONCE AT 10 WK OF AGE (STUDY DURATION: 54 WK), Doses [Promoter]: 1750 NG/KG IN CORN OIL 1X/2 WK FOR 30 WK BEGINNING 18 WK POST CARCINOGEN DOSE (STUDY DURATION: 54 WK), Route [Carcinogen]: INTRAPERITONEAL, Route [Promoter]: GAVAGE, Species: RAT, Strain/Sex: SPRAGUE-DAWLEY/FEMALE): ovary: tumor | outcome (Carcinogen: DIETHYLNITROSAMINE [55-18-5], Doses [Carcinogen]: 175 MG/KG BW ONCE AT 10 WK OF AGE (STUDY DURATION: 62 WK), Doses [Promoter]: 1750 NG/KG IN CORN OIL 1X/2 WK FOR 30 WK BEGINNING 2 WK POST CARCINOGEN DOSE (STUDY DURATION: 62 WK), Route [Carcinogen]: INTRAPERITONEAL, Route [Promoter]: GAVAGE, Species: RAT, Strain/Sex: SPRAGUE-DAWLEY/FEMALE): ovary: tumor | outcome (Carcinogen: DIETHYLNITROSAMINE [55-18-5], Doses [Carcinogen]: 175 MG/KG BW ONCE AT 10 WK OF AGE (STUDY DURATION: 62 WK), Doses [Promoter]: 1750 NG/KG IN CORN OIL 1X/2 WK FOR 60 WK BEGINNING 2 WK POST CARCINOGEN DOSE (STUDY DURATION: 62 WK), Route [Carcinogen]: INTRAPERITONEAL, Route [Promoter]: GAVAGE, Species: RAT, Strain/Sex: SPRAGUE-DAWLEY/FEMALE): ovary: tumor | outcome (Carcinogen: DIETHYLNITROSAMINE, 55-18-5, Doses [Carcinogen]: 10 MG/KG ONCE, Doses [Promoter]: 0, 150 PPT IN DIET FOR DURATION OF STUDY BEGINNING 30 D POST CARCINOGEN DOSE (STUDY DURATION: 450 D), Route [Carcinogen]: INTRAPERITONEAL, Route [Promoter]: ORAL, Species: RAT, Strain/Sex: SPRAGUE-DAWLEY/FEMALE): liver: adenoma or carcinoma | outcome (Carcinogen: DIETHYLNITROSAMINE, 55-18-5, Doses [Carcinogen]: 90 MG/KG BW ONCE, Doses [Promoter]: 0, 0.5 UG/KG 1/WK FOR 20 WK BEGINNING 3 WK POST CARCINOGEN DOSE (STUDY DURATION: 47 WK), Route [Carcinogen]: INTRAPERITONEAL, Route [Promoter]: INTRAPERITONEAL, Species: MOUSE, Strain/Sex: B6D2F1/MALE): liver: tumor | outcome (Carcinogen: N-NITROSODIMETHYLAMINE, 62-75-7, Doses [Carcinogen]: 25 MG/KG ONCE AT 5 WK OF AGE, Doses [Promoter]: 0, 0.05 UG/KG/WK FOR 20 WK BEGINNING 3 WK POST CARCINOGEN DOSE (STUDY DURATION: 52 WK), Route [Carcinogen]: INTRAPERITONEAL, Route [Promoter]: INTRAPERITONEAL, Species: MOUSE, Strain/Sex: SWISS/MALE): lung: tumor | outcome (Carcinogen: N-NITROSODIMETHYLAMINE, 62-75-7, Doses [Carcinogen]: 25 MG/KG ONCE AT 5 WK OF AGE, Doses [Promoter]: 0, 1.6 UG/KG ONCE 3 WK POST CARCINOGEN DOSE (STUDY DURATION: 52 WK), Route [Carcinogen]: INTRAPERITONEAL, Route [Promoter]: INTRAPERITONEAL, Species: MOUSE, Strain/Sex: SWISS/MALE): lung: tumor | outcome (Doses [Carcinogen]: 5 UMOL IN 50 µL ACETONE, Doses [Promoter]: 3.75, 7.5, 15, 30 NG 2/WK, Doses [Promoter]: 3.75, 7.5, 15, 30 NG 2/WK, Route [Carcinogen]: DERMAL, Route [Promoter]: DERMAL, Species: MOUSE, Strain/Sex: HRS/FEMALE): integumentary system (skin): papilloma

CC(O)(CS(=O)(=O)c1ccc(F)cc1)C(=O)Nc1ccc(C#N)c(C(F)(F)F)c1 (centres undefined)
outcome (Carcinogen: 3,2'-DIMETHYL-4-AMINOBIPHENYL, 13394-86-0, Doses [Carcinogen]: 50 MG/KG BW ONCE/2 WK FOR FIRST 20 WK, Doses [Promoter]: 0, 10, 30 MG/KG BW BY GAVAGE 3X/WK FOR 40 WK BEGINNING 20 WK POST CARCINOGEN TREATMENT (STUDY DURATION: 60 WK), Doses [Promoter]: 0, 10, 30 MG/KG BW BY GAVAGE 3X/WK FOR 40 WK BEGINNING 20 WK POST CARCINOGEN TREATMENT (STUDY DURATION: 60 WK), Route [Carcinogen]: SUBCUTANEOUS, Route [Promoter]: ORAL, Species: RAT, Strain/Sex: F344/MALE): prostate (ventral): adenocarcinoma
